Test results: patent US10906880B2, “Kind of isothiazole oxime ether-containing strobilurin derivatives and its preparation methods and application” (priority 2016, dated 2021)
Where two headings read alike, the source gives them in different places.

Legend:
TMV [1] = test: Anti-TMV activity on tobacco, curative mode; assay type: in vivo, tobacco mosaic virus; details: 100 μg/mL, tobacco; for inhibition at 100 µg/mL: Tobacco mosaic virus, read-out: Anti-TMV activity inhibition, Curative effect
TMV [2] = test: Anti-TMV activity on tobacco, inactivation mode; assay type: in vivo, tobacco mosaic virus; details: 100 μg/mL; for inhibition at 100 µg/mL: Tobacco mosaic virus, read-out: Anti-TMV activity inhibition, Inactivation effect
TMV [3] = test: Anti-TMV activity on tobacco, protection mode; assay type: in vivo, tobacco mosaic virus; details: 100 μg/mL; for inhibition at 100 µg/mL: Tobacco mosaic virus, read-out: Anti-TMV activity inhibition, Protection effect
TMV [4] = test: Anti-TMV activity on tobacco, induction mode (systemic acquired resistance); assay type: in vivo, tobacco mosaic virus; details: 100 μg/mL; for inhibition at 100 µg/mL: Tobacco mosaic virus, read-out: Anti-TMV activity inhibition, Induction effect
Alternaria solani = test: Fungicide activity, mycelial growth inhibition on PDA plate; assay type: cell-based; details: for inhibition at 50 µg/mL: Alternaria solani, read-out: Fungicidal activity inhibition, AS
Cercospora arachidicola = test: as above; assay type: cell-based; details: for inhibition at 50 µg/mL: Mycosphaerella arachidis, read-out: Fungicidal activity inhibition, CA
Physalospora piricola = test: as above; assay type: cell-based; details: for inhibition at 50 µg/mL: 50 μg/mL, P. piricola, read-out: Fungicidal activity inhibition, PP
Botrytis cinerea = test: as above; assay type: cell-based; details: for inhibition at 50 µg/mL: Botrytis cinerea, read-out: Fungicidal activity inhibition, BC
Sclerotinia sclerotiorum = test: as above; assay type: cell-based; details: for inhibition at 50 µg/mL: Sclerotinia sclerotiorum, read-out: Fungicidal activity inhibition, SS
Rhizoctonia cerealis = test: as above; assay type: cell-based; details: for inhibition at 50 µg/mL: Ceratobasidium cereale, read-out: Fungicidal activity inhibition, RC
Pellicularia sasakii = test: as above; assay type: cell-based; details: for inhibition at 50 µg/mL: 50 μg/mL, P. sasakii, read-out: Fungicidal activity inhibition, PS
[5] = system: Phytophthora infestans (Mont) de Bary; test: microbe, parasite or virus in culture; assay type: cell-based; details: for inhibition at 50 µg/mL: Phytophthora infestans, read-out: Fungicidal activity inhibition, PI, 50 μg/mL, P. infestans (Mont.) de Bary; for Fungicidal activity inhibition, PI: 50 μg/mL, P. infestans (Mont.) de Bary
Gibberella zeae = test: microbe, parasite or virus in culture; assay type: cell-based; details: for Fungicidal activity inhibition, GZ: 50 μg/mL, G. zeae

| SMILES | inhibition at 50 µg/mL (Alternaria solani; 50 μg/mL, A. solani) [%] | inhibition at 50 µg/mL (Cercospora arachidicola; 50 μg/mL, C. arachidicola) [%] | inhibition at 50 µg/mL (Physalospora piricola) [%] | inhibition at 50 µg/mL (Botrytis cinerea; 50 μg/mL, B. cinerea) [%] | inhibition at 50 µg/mL (Sclerotinia sclerotiorum; 50 μg/mL, S. sclerotiorum) [%] | inhibition at 50 µg/mL (Sclerotinia sclerotiorum) [%] | inhibition at 50 µg/mL (Rhizoctonia cerealis; 50 μg/mL, R. cerealis) [%] | inhibition at 50 µg/mL (Rhizoctonia cerealis) [%] | inhibition at 50 µg/mL (Pellicularia sasakii) [%] | inhibition at 100 µg/mL (TMV [1]) [%] | inhibition at 100 µg/mL (TMV [2]) [%] | inhibition at 100 µg/mL (TMV [3]) [%] | inhibition at 100 µg/mL (TMV [4]) [%] | Fungicidal activity inhibition, PI [5] [%] | inhibition at 50 µg/mL (Cercospora arachidicola) [%] | melting point [°C] | other results |
| --- | --- | --- | --- | --- | --- | --- | --- | --- | --- | --- | --- | --- | --- | --- | --- | --- | --- |
| N#Cc1ccccc1NC(=O)c1snc(Cl)c1Cl [Isotianil, reference compound] | – | – | – | – | – | – | – | – | – | – | – | – | – | – | – | – | Anti-TMV activity inhibition, Curative effect (TMV [1]): 27.31 ± 2.12%; Anti-TMV activity inhibition, Inactivation effect (TMV [2]): 20.77 ± 7.30%; Anti-TMV activity inhibition, Protection effect (TMV [3]): 24.80 ± 5.85%; Anti-TMV activity inhibition, Induction effect (TMV [4]): 44.44 ± 5.18% |
| CO/N=C(/C(=O)NC1CC1)c1ccccc1CO/N=C(\N)c1snc(Cl)c1Cl [CL04-25B] | 21.3 | 28 | 22.8 | 36.8 | 73.3 | > 40 | 85.4 | > 50 | 18.9 | 20.5 ± 1.84 | 0 | 19.6 ± 3.36 | 18.6 ± 3.76 | – | – | – | inhibition at 50 µg/mL [5]: 33.3% |
| CO/C=C(/C(=O)OC)c1ccccc1Oc1cc(Oc2ccccc2C#N)ncn1 [Azoxystrobin, reference compound] | – | – | – | – | – | – | – | – | – | – | – | – | – | 46.88 | – | – | Fungicidal activity inhibition, AS (Alternaria solani): 75.00%; Fungicidal activity inhibition, CA (Cercospora arachidicola): 55.56%; Fungicidal activity inhibition, GZ (Gibberella zeae): 71.43%; Fungicidal activity inhibition, PP (Physalospora piricola): 100%; Fungicidal activity inhibition, BC (Botrytis cinerea): 91.18%; Fungicidal activity inhibition, SS (Sclerotinia sclerotiorum): 88.10%; Fungicidal activity inhibition, RC (Rhizoctonia cerealis): 84.06%; Fungicidal activity inhibition, PS (Pellicularia sasakii): 80.77% |
| CO/C=C(/C(=O)OC)c1ccccc1CO/N=C(C)/C=C/c1ccc(Cl)cc1 [Enestroburin, reference compound] | – | – | – | – | – | – | – | – | – | – | – | – | – | 32.97 | – | – | Fungicidal activity inhibition, AS (Alternaria solani): 50.00%; Fungicidal activity inhibition, CA (Cercospora arachidicola): 55.22%; Fungicidal activity inhibition, GZ (Gibberella zeae): 21.54%; Fungicidal activity inhibition, PP (Physalospora piricola): 59.09%; Fungicidal activity inhibition, BC (Botrytis cinerea): 48.57%; Fungicidal activity inhibition, SS (Sclerotinia sclerotiorum): 44.00%; Fungicidal activity inhibition, RC (Rhizoctonia cerealis): 73.97%; Fungicidal activity inhibition, PS (Pellicularia sasakii): 57.50% |
| CO/N=C(/C(=O)NC1CC1)c1ccccc1CO/N=C(C)/C=C/c1snc(Cl)c1Cl [CL04-32C] | 47.5 | 60 | 71.9 | 57.9 | 73.3 | > 40 | 70.7 | > 50 | 67.6 | 31.6 ± 3.91 | > 30 | 19 ± 0.72 | 16 ± 7.71 | 100 | > 30 | 95 to 97 | inhibition at 50 µg/mL (Alternaria solani): > 30%; inhibition at 50 µg/mL (Botrytis cinerea): > 45% |
| CO/N=C(/C(=O)OC)c1ccccc1CO/N=C(C)/C=C/c1snc(Cl)c1Cl [CL04-17] | 35.7 | 50 | 47.8 | 100 | 86.7 | > 40 | 81.5 | > 50 | 58.8 | > 30 | > 30 | 29.3 ± 1.31 | > 30 | – | > 30 | 105 to 107 | inhibition at 50 µg/mL (Alternaria solani): > 30%; inhibition at 50 µg/mL [5]: > 40% |
| Nc1ccc(S(=O)(=O)Nc2nccs2)cc1 [SZG-7, reference compound] | – | – | – | – | – | – | – | – | – | – | – | – | 79 ± 2.27 | – | – | – | – |
| CSC(=O)c1cccc2nnsc12 [BTH, reference compound] | – | – | – | – | – | – | – | – | – | – | – | – | – | – | – | – | Anti-TMV activity inhibition, Protection effect (TMV [3]): 78.10 ± 0.54%; Anti-TMV activity inhibition, Induction effect (TMV [4]): 78.00 ± 1.34% |
| C#CCNC(=O)/C(=N/OC)c1ccccc1CO/N=C(\N)c1snc(Cl)c1Cl [CL04-25A] | 8.2 | 20 | 19.3 | 42.1 | 46.7 | > 40 | 65.8 | > 50 | 46 | – | 0 | > 40 | – | 100 | – | 106 to 108 | – |
| CO/N=C(/C(=O)NC(C)(C)CSC)c1ccccc1CO/N=C(\C)c1snc(Cl)c1Cl [CL04-22E] | 27.3 | 45.8 | 42.9 | 62.5 | 29.4 | – | 76 | > 50 | 21.2 | 20.2 ± 5.58 | > 30 | 22.7 ± 2.05 | 12.7 ± 6.05 | – | > 30 | – | inhibition at 50 µg/mL (Botrytis cinerea): > 45%; inhibition at 50 µg/mL [5]: 28.6% |
| Cc1ccc(NC(=O)c2snnc2C)cc1Cl [TDL, Tiadinil, reference compound] | – | – | – | – | – | – | – | – | – | – | – | – | 65 ± 2 | – | – | – | – |
| CO/N=C(/C(=O)OC)c1ccccc1CO/N=C(\C)c1snc(Cl)c1Cl [CL04-15A] | 47.1 | 50 | 53 | 100 | 100 | – | 85.5 | > 50 | 76.9 | 1.52 ± 0.62 | – | > 40 | – | – | > 30 | 73 to 75 | inhibition at 50 µg/mL (Alternaria solani): > 30%; inhibition at 50 µg/mL (Gibberella zeae; Fusarium graminearum, read-out: Fungicidal activity inhibition, GZ, 50 μg/mL, G. zeae): > 30% |
| C#CCNC(=O)/C(=N/OC)c1ccccc1CO/N=C(\C)c1snc(Cl)c1Cl [CL04-22B] | 28.6 | 35.7 | 49.1 | 51.9 | 100 | – | 86.9 | > 50 | 73.3 | 1.52 ± 0.62 | > 30 | > 40 | – | – | > 30 | 120 to 122 | Fungicidal activity inhibition, GZ (Gibberella zeae): 100%; inhibition at 50 µg/mL (Botrytis cinerea): > 45% |
| CO/N=C(/C(=O)NC1CC1)c1ccccc1CO/N=C(\C)c1snc(Cl)c1Cl [CL04-22C] | 27.9 | 44 | 61.4 | 47.4 | 80 | > 40 | 61 | > 50 | 56.8 | 4.62 ± 0.55 | 4.44 ± 0.85 | 23.6 ± 0.57 | – | 100 | > 30 | 115 to 117 | inhibition at 50 µg/mL (Botrytis cinerea): > 45% |
